Experiment [1] addresses T1, nociceptin receptor ORL1 (Homo sapiens, UniProt P41146).
T1 construct: expressed in transfected cells
Briefly: Antagonism against nociceptin-elicited G protein activation (GTPγ[35S] binding). The conditions noted are these: GTPγ[35S] binding inhibition, CHO/ORL1 cell membrane, 50 nM nociceptin, 25° C., 150 minutes. It counts as biochemical. As to the method: CHO cells which stably expressed a nociceptin receptor ORL1 were used to investigate the action of tested compounds against nociceptin-elicited G protein activation. A membrane prepared from the CHO/ORL1 cell, 50 nM nociceptin, 200 pM GTPγ[^35S](NEN), 1.5 mg Wheatgerm agglutinin SPA beads (PVT based; Amersham Pharmacia Biotech) and each of the tested compounds were mixed in a GDP buffer (20 mM Hepes, 100 mM sodium chloride, 10 mM magnesium chloride, 1 mM EDTA, 5 μM GDP, pH 7.4) and incubated at 25° C. for 150 minutes, and then the radioactivity was determined. The antagonism against nociceptin-elicited G protein activation was shown by the 50% inhibition concentration (IC50 value) which was calculated from GTP γ [^35S] binding inhibition activity of the compounds of the present invention at various concentrations. From the result it can be understood that the compounds of the invention have antagonism against nociceptin-elicited G protein activation via ORL1 receptor.

Experiment [2] addresses T1, nociceptin receptor ORL1. Briefly: Nociceptin receptor binding inhibition assay. The conditions noted are these: inhibition of 50 pM [125I]Tyr14-Nociceptin binding to CHO/ORL1 cell membrane, SPA beads, 37° C., 60 minutes; read-out: IC50 value, nociceptin receptor binding inhibition action. As to the method:
cDNA which codes a human nociceptin receptor gene (accession No.X77130) was cloned into an expression vector pCR3 (Invitrogen) to prepare pCR3/ORL1. Next, pCR3/ORL1 was transfected in CHO cells using a transfectam (Nippongene) following the directions in the manual appended to the reagent to obtain a stable expression strain (CHO/ORL1 cells) having resistance against 1 mg/ml concentration G418. A membrane fraction (a precipitate fraction obtained by an hour's centrifuge at 100,000 G of the supernatant resulting from 15 minutes' certrifuge at 10,000 G) was prepared from this stable expression strain to carry out a receptor binding assay.
Eleven (11) μg of the membrane, 50 pM [^125I] Tyr^14-Nociceptin (Amersham Pharmacia Biotech) (specific activity 2000 Ci/mmol), 1 mg Wheatgerm agglutinin SPA beads (PVT based; Amersham Pharmacia Biotech) and a test compound were suspended in an NC buffer (50 mM Hepes, 10 mM sodium chloride, 1 mM magnesium chloride, 2.5 mM calcium chloride, 0.1% BSA, 0.025% bacitracin, pH 7.4) and incubated at 37° C. for 60 minutes, and then the radioactivity was determined with Top Count (Packard). The binding activity to the nociceptin receptor was expressed by the 50% inhibition concentration (IC50 value) which was calculated from the inhibition activity to binding to ORL1 receptor of [^125I] Tyr^14-Nociceptin by the compounds of the present invention at various concentrations.

Structures are written as SMILES. pIC50: −log10 of the molar value. Where a name gives a salt, the structure may show the parent alone.

T1 sequence (P41146 whole entry): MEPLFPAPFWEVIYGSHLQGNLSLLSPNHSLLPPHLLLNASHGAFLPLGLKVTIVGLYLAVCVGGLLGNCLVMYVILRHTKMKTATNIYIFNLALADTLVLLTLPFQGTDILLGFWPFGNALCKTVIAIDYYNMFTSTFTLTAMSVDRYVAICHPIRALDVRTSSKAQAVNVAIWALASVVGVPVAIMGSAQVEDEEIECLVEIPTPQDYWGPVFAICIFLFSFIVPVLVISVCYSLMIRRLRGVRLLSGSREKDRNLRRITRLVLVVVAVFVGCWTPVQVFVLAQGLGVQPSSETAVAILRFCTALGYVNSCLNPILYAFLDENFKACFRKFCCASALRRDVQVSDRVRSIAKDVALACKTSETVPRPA

The pIC50 is −log10 of the IC50, conventionally taken in molar units. For the compound `CCC(CC)Sc1nc2cc(Cl)c(N3CCN(CCO)CC3)cc2[nH]1` [Example 89, 5-chloro-2-[(1-ethylpropyl)sulfanyl]-6-[4-(2-hydroxyethyl)piperazin-1-yl]benzimidazole dihydrochloride], the results for the negative logarithm of the IC50 (pIC50) in experiment [1] and in experiment [2] were 8.17 and 8.19, respectively.

In the case of `CC1(Sc2nc3c(F)c(N4CCN(CCO)CC4)c(Cl)cc3[nH]2)CCCC1` [Example 142, 5-chloro-7-fluoro-6-[4-(2-hydroxyethyl)piperazin-1-yl]-2-[(1-methylcyclopentyl)sulfanyl]benzimidazole], the negative-log IC50 (pIC50) in experiment [1] is 9.24; in experiment [2] it was 9.02.

Regarding `CCC(CC)Sc1nc2cc(Cl)c(N3CCNCC3)cc2[nH]1` [Example 1, 5-chloro-2-[(1-ethylpropyl)sulfanyl]-6-(piperazin-1-yl) benzimidazole dihydrochloride], the figures for the pIC50 in experiment [1] and in experiment [2] were 8.04 and 8.68, respectively.

For the compound `Clc1cc2[nH]c(SCC3CCCCC3)nc2cc1N1CCN(CC2CC2)CC1` [Example 102, 5-chloro-2-[(cyclohexylmethyl)sulfanyl]-6-[4-(cyclopropylmethyl)piperazin-1-yl]benzimidazole], the pIC50 in experiment [2] was 8.46.

`CCCC(CC)Nc1nc2cc(N3CCNCC3)c(Cl)cc2[nH]1` (centres unmarked) [Referential Example 13, 5-chloro-2-[(1-ethylbutyl)amino]-6-(piperazin-1-yl)-benzimidazole dihydrochloride]: the pIC50 in experiment [2] is 6.37.

As for `CCC(CC)COc1nc2cc(N3CCNCC3)c(Cl)cc2[nH]1` [Referential Example 1, 5-chloro-2-[(2-ethylbutyl)oxy]-6-(piperazin-1-yl)benzimidazole dihydrochloride], the pIC50 in experiment [1] was 6.74; in experiment [2], 8.15.

Take `CC(CC(C)(C)C)Sc1nc2cc(N3CCNCC3)c(Cl)cc2[nH]1` (centres unmarked) [Example 26, 5-chloro-6-(piperazin-1-yl)-2-[(1,3,3-trimethylbutyl)-sulfanyl]benzimidazole dihydrochloride]: the pIC50 in experiment [1] was 8.28; in experiment [2], 8.89.

In the case of `CC(C)(CN1CCOCC1)Sc1nc2cc(N3CCN(CCO)CC3)c(Cl)cc2[nH]1` [Example 101, 5-chloro-2-[(1,1-dimethyl-2-morpholinoethyl)sulfanyl]-6-[4-(2-hydroxyethyl)piperazin-1-yl]benzimidazole trihydrochloride], the negative-log IC50 (pIC50) in experiment [1] was 8.10; in experiment [2], 8.04.

These data come from patent publication US6969712B2, “Benzimidazole derivatives” (Banyu Pharmaceutical Co., Ltd., priority 2000, dated 2005).
